{"source": "ChEMBL document CHEMBL1201862", "about": "“PubChem BioAssay data set” (2004)", "assay_in_all_cases": "NCI tumour cell line growth inhibition, 48 h", "key": {"[1]": {"system": "COLO 205"}, "[2]": {"system": "NCI-H23"}, "[3]": {"system": "NCI-H460"}, "[4]": {"system": "OVCAR-4"}, "[5]": {"system": "CAKI-1"}, "[6]": {"system": "HCC 2998"}, "[7]": {"system": "MOLT-4"}, "[8]": {"system": "IGROV-1"}, "[9]": {"system": "DMS-273"}, "[10]": {"system": "Malme-3M"}, "[11]": {"system": "HCT-116"}, "[12]": {"system": "HOP-92"}, "[13]": {"system": "HL-60"}, "[14]": {"system": "SN12C"}, "[15]": {"system": "LXFL 529"}, "[16]": {"system": "M19-MEL"}, "[17]": {"system": "UACC-62"}, "[18]": {"system": "786-0"}, "[19]": {"system": "SK-OV-3"}, "[20]": {"system": "M14"}, "[21]": {"system": "XF498"}, "[22]": {"system": "DMS-114"}, "[23]": {"system": "RPMI-8226"}, "[24]": {"system": "SNB-78"}, "[25]": {"system": "SNB-75"}, "[26]": {"system": "NCI-H226"}, "[27]": {"system": "CCRF-CEM"}, "[28]": {"system": "UO-31"}, "[29]": {"system": "SK-MEL-28"}, "[30]": {"system": "NCI-H522"}, "[31]": {"system": "SR"}, "[32]": {"system": "SK-MEL-2"}, "[33]": {"system": "SF-539"}, "[34]": {"system": "SF-268"}, "[35]": {"system": "A498"}, "[36]": {"system": "DLD-1"}, "[37]": {"system": "K562"}, "[38]": {"system": "HOP-62"}, "[39]": {"system": "UACC-257"}, "[40]": {"system": "SW-620"}, "[41]": {"system": "KM12"}, "[42]": {"system": "SNB-19"}, "[43]": {"system": "SF-295"}, "[44]": {"system": "OVCAR-5"}, "[45]": {"system": "U-251"}, "[46]": {"system": "RXF 393"}, "[47]": {"system": "HOP-18"}, "[48]": {"system": "A549"}, "[49]": {"system": "HCT-15"}, "[50]": {"system": "TK-10"}, "[51]": {"system": "OVCAR-8"}, "[52]": {"system": "SK-MEL-5"}, "[53]": {"system": "LOX IMVI"}, "[54]": {"system": "ACHN"}, "[55]": {"system": "OVCAR-3"}, "[56]": {"system": "HT-29"}, "[57]": {"system": "EKVX"}}, "note": "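96-well plates; 48 h exposure; 5 concentrations. Endpoints by linear interpolation between flanking doses. Not reached: highest tested concentration assigned. At the GI50, growth is halved.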 Calls of active or inactive are those of the source. No stated cut-off is given here; in the data, active = GI50 up to about 1.1 µM and inactive = higher."}
{"smiles": "Cc1ncc(CI)c(CI)c1O", "values": [{"measurement": "GI50", "setting": "[1]", "value": "> 100 µM (inactive)"}, {"measurement": "GI50", "setting": "[2]", "value": "19.4 µM (inactive)"}, {"measurement": "GI50", "setting": "[3]", "value": "> 100 µM (inactive)"}, {"measurement": "GI50", "setting": "[4]", "value": "> 100 µM (inactive)"}, {"measurement": "GI50", "setting": "[5]", "value": "63.2 µM (inactive)"}, {"measurement": "GI50", "setting": "[6]", "value": "18.8 µM (inactive)"}, {"measurement": "GI50", "setting": "[7]", "value": "12.7 µM (inactive)"}, {"measurement": "GI50", "setting": "[8]", "value": "> 100 µM (inactive)"}, {"measurement": "GI50", "setting": "[9]", "value": "14.8 µM (inactive)"}, {"measurement": "GI50", "setting": "[10]", "value": "17.5 µM (inactive)"}, {"measurement": "GI50", "setting": "[11]", "value": "15.6 µM (inactive)"}, {"measurement": "GI50", "setting": "[12]", "value": "> 100 µM (inactive)"}, {"measurement": "GI50", "setting": "[13]", "value": "2.22 µM (inactive)"}, {"measurement": "GI50", "setting": "[14]", "value": "17.2 µM (inactive)"}, {"measurement": "GI50", "setting": "[15]", "value": "> 100 µM (inactive)"}, {"measurement": "GI50", "setting": "[16]", "value": "> 100 µM (inactive)"}, {"measurement": "GI50", "setting": "[17]", "value": "> 100 µM (inactive)"}, {"measurement": "GI50", "setting": "[18]", "value": "16.9 µM (inactive)"}, {"measurement": "GI50", "setting": "[19]", "value": "> 100 µM (inactive)"}, {"measurement": "GI50", "setting": "[20]", "value": "> 100 µM (inactive)"}, {"measurement": "GI50", "setting": "[21]", "value": "20.1 µM (inactive)"}, {"measurement": "GI50", "setting": "[22]", "value": "> 100 µM (inactive)"}, {"measurement": "GI50", "setting": "[23]", "value": "6.7 µM (inactive)"}, {"measurement": "GI50", "setting": "[24]", "value": "> 100 µM (inactive)"}, {"measurement": "GI50", "setting": "[25]", "value": "16.8 µM (inactive)"}, {"measurement": "GI50", "setting": "[26]", "value": "2.39 µM (inactive)"}, {"measurement": "GI50", "setting": "[27]", "value": "3.93 µM (inactive)"}, {"measurement": "GI50", "setting": "[28]", "value": "2.5 µM (inactive)"}, {"measurement": "GI50", "setting": "[29]", "value": "18 µM (inactive)"}, {"measurement": "GI50", "setting": "[30]", "value": "3.34 µM (inactive)"}, {"measurement": "GI50", "setting": "[31]", "value": "12.6 µM (inactive)"}, {"measurement": "GI50", "setting": "[32]", "value": "21.3 µM (inactive)"}, {"measurement": "GI50", "setting": "[33]", "value": "23.4 µM (inactive)"}, {"measurement": "GI50", "setting": "[34]", "value": "24.3 µM (inactive)"}, {"measurement": "GI50", "setting": "[35]", "value": "> 100 µM (inactive)"}, {"measurement": "GI50", "setting": "[36]", "value": "24.7 µM (inactive)"}, {"measurement": "GI50", "setting": "[37]", "value": "5.85 µM (inactive)"}, {"measurement": "GI50", "setting": "[38]", "value": "17.2 µM (inactive)"}]}
{"smiles": "Nc1c(-c2nc3ccccc3[nH]2)sc(=S)n1-c1ccc(Cl)cc1", "values": [{"measurement": "GI50", "setting": "[39]", "value": "25.5 µM (inactive)"}, {"measurement": "GI50", "setting": "[1]", "value": "35.3 µM (inactive)"}, {"measurement": "GI50", "setting": "[2]", "value": "36.6 µM (inactive)"}, {"measurement": "GI50", "setting": "[40]", "value": "39.5 µM (inactive)"}, {"measurement": "GI50", "setting": "[41]", "value": "28.6 µM (inactive)"}, {"measurement": "GI50", "setting": "[4]", "value": "20 µM (inactive)"}, {"measurement": "GI50", "setting": "[5]", "value": "33 µM (inactive)"}, {"measurement": "GI50", "setting": "[6]", "value": "21.8 µM (inactive)"}, {"measurement": "GI50", "setting": "[42]", "value": "25.7 µM (inactive)"}, {"measurement": "GI50", "setting": "[43]", "value": "22.9 µM (inactive)"}, {"measurement": "GI50", "setting": "[7]", "value": "31.1 µM (inactive)"}, {"measurement": "GI50", "setting": "[8]", "value": "28.6 µM (inactive)"}, {"measurement": "GI50", "setting": "[9]", "value": "19.8 µM (inactive)"}, {"measurement": "GI50", "setting": "[10]", "value": "36.2 µM (inactive)"}, {"measurement": "GI50", "setting": "[13]", "value": "> 100 µM (inactive)"}, {"measurement": "GI50", "setting": "[14]", "value": "21.4 µM (inactive)"}, {"measurement": "GI50", "setting": "[16]", "value": "32.4 µM (inactive)"}, {"measurement": "GI50", "setting": "[17]", "value": "16.1 µM (inactive)"}, {"measurement": "GI50", "setting": "[18]", "value": "19.9 µM (inactive)"}, {"measurement": "GI50", "setting": "[19]", "value": "34.3 µM (inactive)"}, {"measurement": "GI50", "setting": "[44]", "value": "> 100 µM (inactive)"}, {"measurement": "GI50", "setting": "[20]", "value": "30.3 µM (inactive)"}, {"measurement": "GI50", "setting": "[21]", "value": "35.7 µM (inactive)"}, {"measurement": "GI50", "setting": "[22]", "value": "18.6 µM (inactive)"}, {"measurement": "GI50", "setting": "[45]", "value": "23.7 µM (inactive)"}, {"measurement": "GI50", "setting": "[46]", "value": "23.8 µM (inactive)"}, {"measurement": "GI50", "setting": "[23]", "value": "28.1 µM (inactive)"}, {"measurement": "GI50", "setting": "[47]", "value": "20.8 µM (inactive)"}, {"measurement": "GI50", "setting": "[24]", "value": "30.4 µM (inactive)"}, {"measurement": "GI50", "setting": "[25]", "value": "27.7 µM (inactive)"}, {"measurement": "GI50", "setting": "[26]", "value": "26.5 µM (inactive)"}, {"measurement": "GI50", "setting": "[27]", "value": "41.1 µM (inactive)"}, {"measurement": "GI50", "setting": "[48]", "value": "23.5 µM (inactive)"}, {"measurement": "GI50", "setting": "[49]", "value": 25.4, "unit": "µM"}, {"measurement": "GI50", "setting": "[28]", "value": "29.6 µM (inactive)"}, {"measurement": "GI50", "setting": "[50]", "value": "30 µM (inactive)"}, {"measurement": "GI50", "setting": "[29]", "value": "33.7 µM (inactive)"}, {"measurement": "GI50", "setting": "[30]", "value": "22.4 µM (inactive)"}, {"measurement": "GI50", "setting": "[51]", "value": "23.8 µM (inactive)"}, {"measurement": "GI50", "setting": "[52]", "value": "26 µM (inactive)"}, {"measurement": "GI50", "setting": "[32]", "value": "25.6 µM (inactive)"}, {"measurement": "GI50", "setting": "[33]", "value": "20.1 µM (inactive)"}, {"measurement": "GI50", "setting": "[53]", "value": "26.1 µM (inactive)"}, {"measurement": "GI50", "setting": "[34]", "value": "25.3 µM (inactive)"}, {"measurement": "GI50", "setting": "[54]", "value": "17.7 µM (inactive)"}, {"measurement": "GI50", "setting": "[55]", "value": "18.5 µM (inactive)"}, {"measurement": "GI50", "setting": "[35]", "value": "31 µM (inactive)"}, {"measurement": "GI50", "setting": "[56]", "value": "19.7 µM (inactive)"}, {"measurement": "GI50", "setting": "[36]", "value": "48.2 µM (inactive)"}, {"measurement": "GI50", "setting": "[57]", "value": "35.8 µM (inactive)"}, {"measurement": "GI50", "setting": "[37]", "value": "32.8 µM (inactive)"}, {"measurement": "GI50", "setting": "[38]", "value": "25.6 µM (inactive)"}]}
